Reference: patent publication US6472348B1, “Pyridone derivatives and herbicides” (Kumiai Chemical Industry Co., Ltd., priority 1996, dated 2002)

Tested on: monochoria (Mo)
Experiment: Test Example 1: herbicidal effects by paddy field soil treatment;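 also: grade of growth control; 5 = at least 90%; 4 = 70 to 90%; 3 = 50 to 70%; 2 = 30 to 50%; 1 = 10 to 30%; 0 = under 10%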
Assay type: in vivo
Settings: 100 g of the active ingredient per 10 ares, 21st day after the application, index 0-5 of Table 47
Method in brief: (§1)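 Herbicidal effect was scored against a graded standard 21 days after treatment. Seeds were sown in puddled, leveled paddy soil flooded to 3 cm depth, and the active ingredient was applied at 100 g per 10 ares before greenhouse culture.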

SMILES	Herbicidal effects Mo
Cn1c(C(F)(F)F)ccc(-c2cc(SC3CCCO3)c(Cl)cc2F)c1=O (stereo not drawn) [1-165]	5
Cn1c(C(F)(F)F)ccc(-c2cc(C(=O)O)c(Cl)cc2F)c1=O [Compound No. 1-141, 5-(1-methyl-6-trifluoromethyl-2(1H)-pyridon-3-yl)-2-chloro-4-fluorobenzoic acid]	5

Tested on: barnyardgrass (Ec)
Experiment: as above
Assay type: in vivo
Settings: 100 g of the active ingredient per 10 ares, 21st day after the application, index 0-5 of Table 47
Method in brief: as §1

SMILES	Herbicidal effects Ec
Cn1c(C(F)(F)F)ccc(-c2cc(SC3CCCO3)c(Cl)cc2F)c1=O (stereo not drawn) [1-165]	5
Cn1c(C(F)(F)F)ccc(-c2cc(C(=O)O)c(Cl)cc2F)c1=O [Compound No. 1-141, 5-(1-methyl-6-trifluoromethyl-2(1H)-pyridon-3-yl)-2-chloro-4-fluorobenzoic acid]	5

Tested on: bulrush (Sc)
Experiment: as above
Assay type: in vivo
Settings: 100 g of the active ingredient per 10 ares, 21st day after the application, index 0-5 of Table 47
Method in brief: as §1

SMILES	Herbicidal effects Sc
Cn1c(C(F)(F)F)ccc(-c2cc(SC3CCCO3)c(Cl)cc2F)c1=O (stereo not drawn) [1-165]	5
Cn1c(C(F)(F)F)ccc(-c2cc(C(=O)O)c(Cl)cc2F)c1=O [Compound No. 1-141, 5-(1-methyl-6-trifluoromethyl-2(1H)-pyridon-3-yl)-2-chloro-4-fluorobenzoic acid]	5

Tested on: rice flatsedge (Ci)
Experiment: Test Example 2: herbicidal effects by upland field soil treatment;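 also: grade of growth control; 5 = at least 90%; 4 = 70 to 90%; 3 = 50 to 70%; 2 = 30 to 50%; 1 = 10 to 30%; 0 = under 10%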
Assay type: in vivo
Settings: 100 g of the active ingredient per 10 ares, 21st day after the application, index 0-5 of Table 47
Text: (§2) (Test on Herbicidal Effects by Upland Field Soil Treatment)

SMILES	Herbicidal effects Ci
Cn1c(C(F)(F)F)ccc(-c2cc(SC3CCCO3)c(Cl)cc2F)c1=O (stereo not drawn) [1-165]	5
Cn1c(C(F)(F)F)ccc(-c2cc(C(=O)O)c(Cl)cc2F)c1=O [Compound No. 1-141, 5-(1-methyl-6-trifluoromethyl-2(1H)-pyridon-3-yl)-2-chloro-4-fluorobenzoic acid]	5

Tested on: common lambsquarters (Ch)
Experiment: as above
Assay type: in vivo
Settings: 100 g of the active ingredient per 10 ares, 21st day after the application, index 0-5 of Table 47
Text: as §2

SMILES	Herbicidal effects Ch
Cn1c(C(F)(F)F)ccc(-c2cc(SC3CCCO3)c(Cl)cc2F)c1=O (stereo not drawn) [1-165]	5
Cn1c(C(F)(F)F)ccc(-c2cc(C(=O)O)c(Cl)cc2F)c1=O [Compound No. 1-141, 5-(1-methyl-6-trifluoromethyl-2(1H)-pyridon-3-yl)-2-chloro-4-fluorobenzoic acid]	5

Tested on: Digitaria ciliaris (Di)
Experiment: as above
Assay type: in vivo
Settings: 100 g of the active ingredient per 10 ares, 21st day after the application, index 0-5 of Table 47
Text: as §2

SMILES	Herbicidal effects Di
Cn1c(C(F)(F)F)ccc(-c2cc(SC3CCCO3)c(Cl)cc2F)c1=O (stereo not drawn) [1-165]	5
Cn1c(C(F)(F)F)ccc(-c2cc(C(=O)O)c(Cl)cc2F)c1=O [Compound No. 1-141, 5-(1-methyl-6-trifluoromethyl-2(1H)-pyridon-3-yl)-2-chloro-4-fluorobenzoic acid]	5

Tested on: barnyardgrass (Ec)
Experiment: as above
Assay type: in vivo
Settings: 100 g of the active ingredient per 10 ares, 21st day after the application, index 0-5 of Table 47
Text: as §2

SMILES	Herbicidal effects Ec
Cn1c(C(F)(F)F)ccc(-c2cc(SC3CCCO3)c(Cl)cc2F)c1=O (stereo not drawn) [1-165]	5
Cn1c(C(F)(F)F)ccc(-c2cc(C(=O)O)c(Cl)cc2F)c1=O [Compound No. 1-141, 5-(1-methyl-6-trifluoromethyl-2(1H)-pyridon-3-yl)-2-chloro-4-fluorobenzoic acid]	4

Tested on: pale smartweed (Po)
Experiment: as above
Assay type: in vivo
Settings: 100 g of the active ingredient per 10 ares, 21st day after the application, index 0-5 of Table 47
Text: as §2

SMILES	Herbicidal effects Po
Cn1c(C(F)(F)F)ccc(-c2cc(SC3CCCO3)c(Cl)cc2F)c1=O (stereo not drawn) [1-165]	5
Cn1c(C(F)(F)F)ccc(-c2cc(C(=O)O)c(Cl)cc2F)c1=O [Compound No. 1-141, 5-(1-methyl-6-trifluoromethyl-2(1H)-pyridon-3-yl)-2-chloro-4-fluorobenzoic acid]	5

Tested on: slender amaranth (Am)
Experiment: as above
Assay type: in vivo
Settings: 100 g of the active ingredient per 10 ares, 21st day after the application, index 0-5 of Table 47
Text: as §2

SMILES	Herbicidal effects Am
Cn1c(C(F)(F)F)ccc(-c2cc(SC3CCCO3)c(Cl)cc2F)c1=O (stereo not drawn) [1-165]	5
Cn1c(C(F)(F)F)ccc(-c2cc(C(=O)O)c(Cl)cc2F)c1=O [Compound No. 1-141, 5-(1-methyl-6-trifluoromethyl-2(1H)-pyridon-3-yl)-2-chloro-4-fluorobenzoic acid]	5

Tested on: rice flatsedge (Ci)
Experiment: Test Example 3: herbicidal effects by upland field foliage treatment
Assay type: in vivo
Design: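 grade of growth control; 5 = at least 90%; 4 = 70 to 90%; 3 = 50 to 70%; 2 = 30 to 50%; 1 = 10 to 30%; 0 = under 10%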
Settings: 100 g of the active ingredient per 10 ares, evaluated on the 14th day after treatment
Method in brief: (§3)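 Readout: visual herbicidal rating per defined standards, 14th day after treatment. Plants sown in sand (pot area 120 cm^2), soil-covered, greenhouse-cultured for 2 weeks prior to foliage application, then greenhouse-grown until scoring.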

SMILES	Herbicidal effects Ci
Cn1c(C(F)(F)F)ccc(-c2cc(SC3CCCO3)c(Cl)cc2F)c1=O (stereo not drawn) [1-165]	5
Cn1c(C(F)(F)F)ccc(-c2cc(C(=O)O)c(Cl)cc2F)c1=O [Compound No. 1-141, 5-(1-methyl-6-trifluoromethyl-2(1H)-pyridon-3-yl)-2-chloro-4-fluorobenzoic acid]	5

Tested on: common lambsquarters (Ch)
Experiment: as above
Assay type: in vivo
Design: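 grade of growth control; 5 = at least 90%; 4 = 70 to 90%; 3 = 50 to 70%; 2 = 30 to 50%; 1 = 10 to 30%; 0 = under 10%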
Settings: 100 g of the active ingredient per 10 ares, evaluated on the 14th day after treatment
Method in brief: as §3

SMILES	Herbicidal effects Ch
Cn1c(C(F)(F)F)ccc(-c2cc(SC3CCCO3)c(Cl)cc2F)c1=O (stereo not drawn) [1-165]	5
Cn1c(C(F)(F)F)ccc(-c2cc(C(=O)O)c(Cl)cc2F)c1=O [Compound No. 1-141, 5-(1-methyl-6-trifluoromethyl-2(1H)-pyridon-3-yl)-2-chloro-4-fluorobenzoic acid]	5

Tested on: barnyardgrass (Ec)
Experiment: as above
Assay type: in vivo
Design: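 grade of growth control; 5 = at least 90%; 4 = 70 to 90%; 3 = 50 to 70%; 2 = 30 to 50%; 1 = 10 to 30%; 0 = under 10%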
Settings: 100 g of the active ingredient per 10 ares, evaluated on the 14th day after treatment
Method in brief: as §3

SMILES	Herbicidal effects Ec
Cn1c(C(F)(F)F)ccc(-c2cc(SC3CCCO3)c(Cl)cc2F)c1=O (stereo not drawn) [1-165]	5
Cn1c(C(F)(F)F)ccc(-c2cc(C(=O)O)c(Cl)cc2F)c1=O [Compound No. 1-141, 5-(1-methyl-6-trifluoromethyl-2(1H)-pyridon-3-yl)-2-chloro-4-fluorobenzoic acid]	5

Tested on: pale smartweed (Po)
Experiment: as above
Assay type: in vivo
Design: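 grade of growth control; 5 = at least 90%; 4 = 70 to 90%; 3 = 50 to 70%; 2 = 30 to 50%; 1 = 10 to 30%; 0 = under 10%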
Settings: 100 g of the active ingredient per 10 ares, evaluated on the 14th day after treatment
Method in brief: as §3

SMILES	Herbicidal effects Po
Cn1c(C(F)(F)F)ccc(-c2cc(SC3CCCO3)c(Cl)cc2F)c1=O (stereo not drawn) [1-165]	5
Cn1c(C(F)(F)F)ccc(-c2cc(C(=O)O)c(Cl)cc2F)c1=O [Compound No. 1-141, 5-(1-methyl-6-trifluoromethyl-2(1H)-pyridon-3-yl)-2-chloro-4-fluorobenzoic acid]	5

Tested on: slender amaranth (Am)
Experiment: as above
Assay type: in vivo
Design: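 grade of growth control; 5 = at least 90%; 4 = 70 to 90%; 3 = 50 to 70%; 2 = 30 to 50%; 1 = 10 to 30%; 0 = under 10%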
Settings: 100 g of the active ingredient per 10 ares, evaluated on the 14th day after treatment
Method in brief: as §3

SMILES	Herbicidal effects Am
Cn1c(C(F)(F)F)ccc(-c2cc(SC3CCCO3)c(Cl)cc2F)c1=O (stereo not drawn) [1-165]	5
Cn1c(C(F)(F)F)ccc(-c2cc(C(=O)O)c(Cl)cc2F)c1=O [Compound No. 1-141, 5-(1-methyl-6-trifluoromethyl-2(1H)-pyridon-3-yl)-2-chloro-4-fluorobenzoic acid]	5

Tested on: Diaitaria ciliaris (Di)
Experiment: as above
Assay type: in vivo
Design: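 grade of growth control; 5 = at least 90%; 4 = 70 to 90%; 3 = 50 to 70%; 2 = 30 to 50%; 1 = 10 to 30%; 0 = under 10%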
Settings: 100 g of the active ingredient per 10 ares, evaluated on the 14th day after treatment
Method in brief: as §3

SMILES	Herbicidal effects Di
Cn1c(C(F)(F)F)ccc(-c2cc(SC3CCCO3)c(Cl)cc2F)c1=O (stereo not drawn) [1-165]	5
Cn1c(C(F)(F)F)ccc(-c2cc(C(=O)O)c(Cl)cc2F)c1=O [Compound No. 1-141, 5-(1-methyl-6-trifluoromethyl-2(1H)-pyridon-3-yl)-2-chloro-4-fluorobenzoic acid]	5
